{"source": "patent US8987287B2", "about": "“Spirocyclic morphinans and their use” (Purdue Pharma L.P., priority 2012, dated 2015)", "key": {"κ opioid receptor": {"target": "κ opioid receptor (Homo sapiens (Human), UniProt P41145)", "assay": "κ-opioid receptor radioligand ([3H]-U69,593) dose-displacement binding assay", "conditions": "binding affinity, read-out: Opioid Receptor Ki (nM) κ", "method": "κ-Opioid Receptor Binding Assay Procedures: Membranes from recombinantHEK-293 cells, CHO or U-2 OS cells expressing the recombinant human κ opioid receptor (κ) were prepared by lysing cells in ice cold hypotonic buffer (2.5 mM MgCl2, 50 mM HEPES, pH 7.4) (10 mL/10 cm dish) followed by homogenization with a tissue grinder/Teflon pestle. Membranes were collected by centrifugation at 30,000×g for 15 min at 4° C. and pellets were resuspended in hypotonic buffer to a final concentration of 1-3 mg/mL. Protein concentrations were determined using the BioRad protein assay reagent with bovine serum albumen as standard. Aliquots of κ receptor membranes were stored at −80° C.\nRadioligand dose displacement assays used 0.4 nM [^3H]-U69,593 (GE Healthcare, Piscataway, N.J.; 40 Ci/mmole) with 15 μg membrane protein (recombinant κ opioid receptor expressed in HEK 293 cells; in-house prep) in a final volume of 200 μl binding buffer (5% DMSO, 50 mM Trizma base, pH 7.4). Non-specific binding was determined in the presence of 10 μM unlabeled naloxone or U69,593. All reactions were performed in 96-well polypropylene plates for 1 hour at a temperature of about 25° C. Binding reactions were terminated by rapid filtration onto 96-well Unifilter GF/C filter plates (Perkin Elmer, Shelton, Conn.) presoaked in 0.5% polyethylenimine (Sigma). Harvesting was performed using a 96-well tissue harvester (Perkin Elmer, Shelton, Conn.) followed by five filtration washes with 200 μl ice-cold binding buffer. Filter plates were subsequently dried at 50° C. for 1-2 hours. Fifty μl/well scintillation cocktail (Perkin Elmer, Shelton, Conn.) was added and plates were counted in a Packard Top-Count for 1 min/well.\n(§1) In TABLE 1, binding affinity of certain Compounds of the Invention to the μ-, δ- and κ-opioid receptors was determined as described above."}, "μ-opioid receptor [1]": {"target": "T1, μ-opioid receptor (Homo sapiens (Human), UniProt P35372)", "assay": "μ-opioid receptor radioligand ([3H]-diprenorphine) dose-displacement binding assay", "conditions": "binding affinity, read-out: Opioid Receptor Ki (nM) μ", "method": "μ-Opioid Receptor Binding Assay Procedures: Radioligand dose-displacement binding assays for μ-opioid receptors used 0.3 nM [^3H]-diprenorphine (Perkin Elmer, Shelton, Conn.), with […] membrane protein/well in a final volume of 500 μl binding buffer (10 mM MgCl2, 1 mM EDTA, 5% DMSO, 50 mM HEPES, pH 7.4). Reactions were carried out in the absence or presence of increasing concentrations of unlabeled naloxone. All reactions were conducted in 96-deep well polypropylene plates for 2 hours at room temperature. Binding reactions were terminated by rapid filtration onto 96-well Unifilter GF/C filter plates (Perkin Elmer, Shelton, Conn.), presoaked in 0.5% polyethylenimine using a 96-well tissue harvester (Perkin Elmer, Shelton, Conn.) followed by performing three filtration washes with 500 μl of ice-cold binding buffer. Filter plates were subsequently dried at 50° C. for 2-3 hours. BetaScint scintillation cocktail (Perkin Elmer, Shelton, Conn.) was added (50 μl/well), and plates were counted using a Packard Top-Count for 1 min/well. The data were analyzed using the one-site competition curve fitting functions in GraphPad PRISM™ v. 3.0 or higher (San Diego, Calif.), or an in-house function for one-site competition curve-fitting.\nas §1"}, "μ-opioid receptor [2]": {"target": "T1, μ-opioid receptor", "assay": "μ-opioid receptor [35S]GTPγS functional assay, HEK-293 or CHO cells", "assay_type": "biochemical", "conditions": "for Emax: relative to DAMGO, HEK-293 or CHO cells", "method": "μ-Opioid Receptor Functional Assay Procedures: [^35S]GTPγS functional assays were conducted using freshly thawed μ-receptor membranes prepared in-house from a cell line expressing recombinant μ opioid receptor in a HEK-293, CHO or U-2 OS cell background, or purchased from a commercial source (Perkin Elmer, Shelton, Conn.; or DiscovRx, Fremont, Calif.). Assay reactions were prepared by sequentially adding the following reagents to binding buffer (100 mM NaCl, 10 mM MgCl2, 20 mM HEPES, pH 7.4) on ice (final concentrations indicated): membrane protein (0.026 mg/mL), saponin ([…]), GDP ([…]) and [^35S]GTPγS (0.20 nM; Perkin Elmer, Shelton, Conn.). The prepared membrane solution (190 μl/well) was transferred to 96-shallow well polypropylene plates containing 10 μl of 20× concentrated stock solutions of the agonist [D-Ala^2, N-methyl-Phe^4 Gly-ol^5]-enkephalin (DAMGO) prepared in dimethyl sulfoxide (DMSO). Plates were incubated for 30 min at about 25° C. with shaking. Reactions were terminated by rapid filtration onto 96-well Unifilter GF/B filter plates (Perkin Elmer, Shelton, Conn.) using a 96-well tissue harvester (Perkin Elmer, Shelton, Conn.) followed by three filtration washes with 200 μl of ice-cold wash buffer (10 mM NaH2PO4, 10 mM Na2HPO4, pH 7.4). Filter plates were subsequently dried at 50° C. for 2-3 hours. BetaScint scintillation cocktail (Perkin Elmer, Shelton, Conn.) was added (50 μl/well) and plates were counted using a Packard Top-Count for 1 min/well. Data were analyzed using the sigmoidal dose-response curve fitting functions in GraphPad PRISM v. 3.0, or an in-house function for non-linear, sigmoidal dose-response curve-fitting.\nμ-Opioid Receptor Functional Data: μ GTP EC50 is the concentration of a compound providing 50% of the maximal response for the compound at a μ-opioid receptor.\nμ GTP Emax (%) is the maximal effect elicited by a compound relative to the effect elicited by DAMGO, a standard μ agonist. Generally, the μ GTP Emax (%) value measures the efficacy of a compound to treat or prevent pain or other Conditions.\nIn TABLE 2, activity response of certain Compounds of the Invention to the μ-, δ- and κ-opioid receptors was determined as described above for functional assays using HEK-293 or CHO cells."}}, "data": [{"smiles": "O=C1NC(=O)[C@@]2(CC[C@@]3(O)[C@H]4Cc5ccc(O)cc5[C@@]3(CCN4CC3CC3)C2)N1", "note": "[Compound 3, (4bR,4′S,8aS,9R)-11-(cyclopropylmethyl)-3,8a-dihydroxy-5,7,8,8a,9,10-hexahydrospiro[9,4b-(epiminoethano)phenanthrene-6,4′-imidazolidine]-2′,5′-dione]", "values": [{"measurement": "Ki", "setting": "κ opioid receptor", "result": "0.6 ± 0.15", "unit": "nM"}, {"measurement": "Ki", "setting": "μ-opioid receptor [1]", "result": "15.9 ± 3.02", "unit": "nM"}, {"measurement": "EC50", "setting": "μ-opioid receptor [2]", "result": "> 20000", "unit": "nM"}, {"measurement": "Emax", "setting": "μ-opioid receptor [2]", "result": "10.6 ± 7.11", "unit": "%"}]}, {"smiles": "O=C1NC[C@@]2(CC[C@@]3(O)[C@H]4Cc5ccc(O)cc5[C@@]3(CCN4CC3CC3)C2)N1", "note": "[Compound 5, (4bR,4′S,8aS,9R)-11-(cyclopropylmethyl)-3,8a-dihydroxy-5,7,8,8a,9,10-hexahydrospiro[9,4b-(epiminoethano)phenanthrene-6,4′-imidazolidin]-2′-one]", "values": [{"measurement": "Ki", "setting": "κ opioid receptor", "result": "0.94 ± 0.18", "unit": "nM"}, {"measurement": "Ki", "setting": "μ-opioid receptor [1]", "result": "3.55 ± 0.77", "unit": "nM"}, {"measurement": "EC50", "setting": "μ-opioid receptor [2]", "result": "> 20000", "unit": "nM"}, {"measurement": "Emax", "setting": "μ-opioid receptor [2]", "result": -1, "unit": "%"}]}]}
